Tests used:
[1] = system: resistant parasites; conditions: Farm 4 from Anderson et al, 1991; cited from earlier work
[2] = system: adult liver fluke; conditions: oral, Coles & Stafford 2001; cited from earlier work
[3] = system: immature flukes; conditions: in vivo; cited from earlier work
[4] = system: albendazole resistant Trichostrongylus axei; assay: Trial 1: repeated oral dosing of albendazole in lambs, worm count (abomasa)
[5] = system: albendazole resistant Ostertagia Circumcincta; assay: as above
[6] = system: albendazole resistant Cooperia spp.; assay: Trial 1: repeated oral dosing of albendazole in lambs, worm count (small intestine)
[7] = system: albendazole resistant Nematodirus spp.; assay: as above
[8] = system: resistant Ostertagia circumcincta; assay: Trial 3: oral albendazole vs prototype albendazole bolus in adult ewes, worm count (abomasa); conditions: oral 5.0 mg/kg once
[9] = system: resistant Trichostrongylus axei; assay: as above; conditions: oral 5.0 mg/kg once
[10] = system: resistant Haemonchus Contortus; assay: as above; conditions: oral 5.0 mg/kg once
[11] = system: resistant Cooperia spp.; assay: Trial 3: oral albendazole vs prototype albendazole bolus in adult ewes, worm count (small intestine); conditions: oral 5.0 mg/kg once
[12] = system: abamectin-resistant Ostertagia circumcincta; assay: Trial 2: repeated oral dosing of abamectin in lambs, worm count; format: in vivo
[13] = system: abamectin-resistant Trichostrongylus colubriformis; assay: as above; format: in vivo
[14] = system: abamectin-resistant Cooperia spp.; assay: as above; format: in vivo
[15] = system: multiple drug resistant Ostertagia circumcincta; assay: Magnum combination bolus trial in sheep, efficacy based on worm counts; format: in vivo; conditions: single standard oral doses
Description: (§1) This concept has again been tested for the present invention by constructing and testing for efficacy a Magnum bolus releasing 2 actives simultaneously. A prototype sheep bolus designed to release 5 mg/kg of albendazole and 0.18 mg/kg abamectin in a 50 kg sheep was tested against two species of multiple drench resistant parasites. Trial lambs ranged in weight from 48-55.5 kg.

[16] = system: multiple drug resistant Trichostrongylus colubriformis; assay: as above; format: in vivo; conditions: single standard oral doses
Description: as §1

[17] = system: parasites of goats; conditions: Pomroy et al, 1992; cited from earlier work

For `CCCSc1ccc2nc(NC(=O)OC)[nH]c2c1` [Alb, albendazole], the Efficacy [1] is given as 73%, the “level of efficacy against adult liver fluke” value [2] is given as “variable and less than desirable” and the “efficacy against immature flukes” value [3] is given as “ineffective”. For the same molecule, the “% reduction in worm count Trichostrongylus axei” value ([4]; 1.75 mg/kg for 7 days) was 87.5%, the “% reduction in worm count Trichostrongylus axei” value ([4]; 2.5 mg/kg for 7 days) was 90.2% and the “% reduction in worm count Trichostrongylus axei” value ([4]; 3.75 mg/kg for 7 days) was 96.8%. For the same molecule, the “% reduction in worm count Trichostrongylus axei” value ([4]; 5 mg/kg for 7 days) was 97.6%, the “% reduction in worm count Trichostrongylus axei” value ([4]; 5 mg/kg once) was 82.9% and the “% reduction in worm count Ostertagia circumcincta” value ([5]; 1.75 mg/kg for 7 days) was 74.9%. The “% reduction in worm count Ostertagia circumcincta” value ([5]; 2.5 mg/kg for 7 days) was 57.0%, the “% reduction in worm count Ostertagia circumcincta” value ([5]; 3.75 mg/kg for 7 days) was 70.9% and the “% reduction in worm count Ostertagia circumcincta” value ([5]; 5 mg/kg for 7 days) was 92.3%. For the same molecule, the “% reduction in worm count Ostertagia circumcincta” value ([5]; 5 mg/kg once) was 42.7%, the “% reduction in worm count Cooperia spp.” value ([6]; 1.75 mg/kg for 7 days) was 57.1% and the “% reduction in worm count Cooperia spp.” value ([6]; 2.5 mg/kg for 7 days) was 67.5%. The “% reduction in worm count Cooperia spp.” value ([6]; 3.75 mg/kg for 7 days) was 83.3%, the “% reduction in worm count Cooperia spp.” value ([6]; 5 mg/kg for 7 days) was 86.9% and the “% reduction in worm count Cooperia spp.” value ([6]; 5 mg/kg once) was 36.9%. For the same molecule, the “% reduction in worm count Nematodirus spp.” value ([7]; 1.75 mg/kg for 7 days) was 58.9%, the “% reduction in worm count Nematodirus spp.” value ([7]; 2.5 mg/kg for 7 days) was 69.0% and the “% reduction in worm count Nematodirus spp.” value ([7]; 3.75 mg/kg for 7 days) was 88.1%. For the same molecule, the “% reduction in worm count Nematodirus spp.” value ([7]; 5 mg/kg for 7 days) was 73.9%, the “% reduction in worm count Nematodirus spp.” value ([7]; 5 mg/kg once) was 71.2% and the “% reduction in worm count Ostertagia circumcincta” value [8] was 59.3%. For the same molecule, the “% reduction in worm count Trichostrongylus axei” value [9] was 91.8%, the “% reduction in worm count Haemonchus Contortus” value [10] was 91.4% and the “% reduction in worm count Cooperia spp.” value [11] was 59.3%.
In the case of `c1ccc([C@H]2CN3CCSC3=N2)cc1` [Levamisole], the Efficacy [1] is given as 88%.
In the case of `CO/N=C1\C[C@]2(C[C@@H]3C[C@@H](C/C=C(\C)C[C@@H](C)/C=C/C=C4\CO[C@@H]5[C@H](O)C(C)=C[C@@H](C(=O)O3)[C@]45O)O2)O[C@H](/C(C)=C/C(C)C)[C@H]1C` [Moxidectin], the “% reduction in worm count Ostertagia circumcincta” value ([12]; 0.2 mg/kg once) is reported as 76.3%, the “% reduction in worm count Trichostrongylus colubriformis” value ([13]; 0.2 mg/kg once) is reported as 72.5% and the “% reduction in worm count Cooperia spp.” value ([14]; 0.2 mg/kg once) is reported as 99.1%. For the same molecule, the “Efficacy based on worm counts Ostertagia circumcincta” value [15] was 59.9 and the “Efficacy based on worm counts Trichostrongylus colubriformis” value [16] was 90.6.
For `COC(=O)Nc1nc2ccc([S+]([O-])c3ccccc3)cc2[nH]1` (centres unmarked) [oxfendazole], the Efficacy [17] is listed as 82%.
In the case of abamectin, the “% reduction in worm count Ostertagia circumcincta” value ([12]; 0.07 mg/kg for 7 days) is reported as 77.2%, the “% reduction in worm count Ostertagia circumcincta” value ([12]; 0.113 mg/kg for 7 days) is reported as 89.3% and the “% reduction in worm count Ostertagia circumcincta” value ([12]; 0.18 mg/kg for 7 days) is reported as 96.4%. The “% reduction in worm count Ostertagia circumcincta” value ([12]; 0.2 mg/kg once) was 45.0%, the “% reduction in worm count Trichostrongylus colubriformis” value ([13]; 0.07 mg/kg for 7 days) was 47.3% and the “% reduction in worm count Trichostrongylus colubriformis” value ([13]; 0.113 mg/kg for 7 days) was 55.3%. The “% reduction in worm count Trichostrongylus colubriformis” value ([13]; 0.18 mg/kg for 7 days) was 77.1%, the “% reduction in worm count Trichostrongylus colubriformis” value ([13]; 0.2 mg/kg once) was 60.7% and the “% reduction in worm count Cooperia spp.” value ([14]; 0.07 mg/kg for 7 days) was 99.1%. For the same molecule, the “% reduction in worm count Cooperia spp.” value ([14]; 0.113 mg/kg for 7 days) was 99.6%, the “% reduction in worm count Cooperia spp.” value ([14]; 0.18 mg/kg for 7 days) was 100.0% and the “% reduction in worm count Cooperia spp.” value ([14]; 0.2 mg/kg once) was 94.9%.
In the case of ivermectin, the Efficacy [17] is given as 27%.

Source: US20090017089A1, “Multiple active agents such as anthelmintics sustained release delivery device” (priority 2003, published 2009)
